Experimental data from patent publication US20110251216A1, “COMPOSITIONS AND METHODS FOR INHIBITING EZH2” (The Regents of The University of Michigan, priority 2010, published 2011).

What was measured:
Assay type in all cases: cell-based
[1] = test system: breast cell line HME infected with EZH2 adenovirus; test: basement membrane matrix invasion assay, EZH2 overexpressing HME cells
Description: (§1) A, Dose response of isoliquiritigenin on inhibiting EZH2 mediated repression. B, A reconstituted basement membrane invasion chamber assay was used to assess the invasion of breast epithelial cell line infected with EZH2 and control adenoviruses as well as SET domain mutant EZH2 adenovirus. EZH2 treated cells were also treated with SAHA, the HDAC inhibitor and isoliquiritigenin, the small molecule inhibitor of EZH2 and the control small molecule phloretin.
For invasion assays, the breast cell lines HME was infected with EZH2 adenovirus. Forty-eight hours post-infection, cells were seeded onto the basement membrane matrix (EC matrix, Chemicon, Temecula, Calif.) present in the insert of a 24-well culture plate. Fetal bovine serum was added to the lower chamber as a chemoattractant with or without 2 doses of small molecule inhibitors. After 48 hours, the non-invading cells and EC matrix were gently removed with a cotton swab. Invasive cells located on the lower side of the chamber were measured colorimetrically by treating with 150 μl of 10% acetic acid and the absorbance measured at 560 nm using a spectrophotometer.

EZH2 = target: T1, EZH2 (Homo sapiens, UniProt Q15910); test: high throughput screen, E-cadherin promoter luciferase reporter in EZH2 adenovirus infected cells; details: final compound concentration about 5 μM, 24 hours
T1 construct: expressed in transfected cells; host or cells: Primary breast cancer cells infected with EZH2 adenovirus
Description: A high throughput screening protocol was used to identify small molecule inhibitors of EZH2. Primary breast cancer cells were transfected with the E-cadherin promoter luciferase reporter gene and infected with the EZH2 adenovirus to suppress luciferase expression 48 hours prior to compound addition. Eighteen hours prior to compound addition, cells were trypsinized and distributed into 384-well plates in 60 μl of medium using the Multidrop equipment. At time zero, compounds were transferred from 1.5 mM DMSO stocks to the cell plates in a final compound concentration of about 5 μM. […] After 24 hours, the expressed luciferase activity was measured by adding 50 μl of the medium and 10 μl of Steady-Glo luciferase reagent (Promega). Sample plates were read in the Pherastar plate reader (BMG Labtech). Each plate in the screen contains 320 compounds to be tested plus 64 control wells placed in the outer two columns on each side of the plate (>50,000 compounds are screened). […]
A high throughput screening protocol was used to identify small molecule inhibitors of EZH2. […] After 24 hours, the expressed luciferase activity was measured by adding 50 μl of the medium and 10 ul of Steady-Glo luciferase reagent (Promega). Sample plates were read in the Pherastar plate reader (BMG Labtech). […]

[2] = test system: EZH2 mediated E cadherin repression; test: EZH2 mediated E cadherin repression, SYBR green RT-PCR and dose response
Description: A, Chemical structure of the flavonoid isoliquiritigenin. B, Quantitative SYBR green RT-PCR of EZH2 and E cadherin transcripts in cell lines over expressing EZH2 and control adenoviruses. RT-PCR on each sample was performed in duplicate, and a ratio was calculated relative to the housekeeping genes GAPDH. Transcripts were also measured in cells that were treated with isoliquiritigenin or other small molecules.
as §1

T1 sequence (Q15910 whole entry): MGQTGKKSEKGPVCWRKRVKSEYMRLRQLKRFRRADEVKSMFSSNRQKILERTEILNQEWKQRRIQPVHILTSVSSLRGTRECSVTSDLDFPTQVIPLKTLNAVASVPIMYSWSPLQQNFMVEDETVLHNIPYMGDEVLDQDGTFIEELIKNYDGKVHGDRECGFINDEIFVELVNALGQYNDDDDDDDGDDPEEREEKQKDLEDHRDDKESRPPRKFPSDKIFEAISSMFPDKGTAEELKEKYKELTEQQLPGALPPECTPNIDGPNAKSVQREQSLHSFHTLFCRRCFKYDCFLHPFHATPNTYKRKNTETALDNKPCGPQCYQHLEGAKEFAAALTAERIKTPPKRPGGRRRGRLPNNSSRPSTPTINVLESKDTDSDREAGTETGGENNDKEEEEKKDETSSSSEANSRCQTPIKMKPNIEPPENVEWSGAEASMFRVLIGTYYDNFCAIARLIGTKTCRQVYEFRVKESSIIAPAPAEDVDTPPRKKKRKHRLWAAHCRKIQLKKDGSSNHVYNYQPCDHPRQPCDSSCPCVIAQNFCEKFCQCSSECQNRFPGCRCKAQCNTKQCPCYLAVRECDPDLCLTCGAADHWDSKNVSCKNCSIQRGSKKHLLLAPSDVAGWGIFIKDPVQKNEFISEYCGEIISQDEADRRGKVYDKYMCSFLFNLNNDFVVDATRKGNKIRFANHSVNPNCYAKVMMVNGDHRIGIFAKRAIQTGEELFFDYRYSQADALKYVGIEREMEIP
T1 sequence (O75530 whole entry partner): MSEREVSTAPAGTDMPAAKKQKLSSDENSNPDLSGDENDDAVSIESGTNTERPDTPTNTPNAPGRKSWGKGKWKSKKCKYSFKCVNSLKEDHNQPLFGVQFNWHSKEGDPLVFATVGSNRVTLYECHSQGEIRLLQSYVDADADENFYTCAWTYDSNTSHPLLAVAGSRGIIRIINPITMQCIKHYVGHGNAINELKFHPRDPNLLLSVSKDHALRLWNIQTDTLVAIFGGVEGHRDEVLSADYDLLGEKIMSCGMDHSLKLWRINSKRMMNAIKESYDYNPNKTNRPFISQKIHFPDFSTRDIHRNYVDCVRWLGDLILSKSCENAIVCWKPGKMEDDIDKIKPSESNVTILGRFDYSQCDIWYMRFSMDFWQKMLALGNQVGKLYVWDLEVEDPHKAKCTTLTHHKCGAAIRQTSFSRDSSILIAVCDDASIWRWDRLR
T1 sequence (Q15022 whole entry partner): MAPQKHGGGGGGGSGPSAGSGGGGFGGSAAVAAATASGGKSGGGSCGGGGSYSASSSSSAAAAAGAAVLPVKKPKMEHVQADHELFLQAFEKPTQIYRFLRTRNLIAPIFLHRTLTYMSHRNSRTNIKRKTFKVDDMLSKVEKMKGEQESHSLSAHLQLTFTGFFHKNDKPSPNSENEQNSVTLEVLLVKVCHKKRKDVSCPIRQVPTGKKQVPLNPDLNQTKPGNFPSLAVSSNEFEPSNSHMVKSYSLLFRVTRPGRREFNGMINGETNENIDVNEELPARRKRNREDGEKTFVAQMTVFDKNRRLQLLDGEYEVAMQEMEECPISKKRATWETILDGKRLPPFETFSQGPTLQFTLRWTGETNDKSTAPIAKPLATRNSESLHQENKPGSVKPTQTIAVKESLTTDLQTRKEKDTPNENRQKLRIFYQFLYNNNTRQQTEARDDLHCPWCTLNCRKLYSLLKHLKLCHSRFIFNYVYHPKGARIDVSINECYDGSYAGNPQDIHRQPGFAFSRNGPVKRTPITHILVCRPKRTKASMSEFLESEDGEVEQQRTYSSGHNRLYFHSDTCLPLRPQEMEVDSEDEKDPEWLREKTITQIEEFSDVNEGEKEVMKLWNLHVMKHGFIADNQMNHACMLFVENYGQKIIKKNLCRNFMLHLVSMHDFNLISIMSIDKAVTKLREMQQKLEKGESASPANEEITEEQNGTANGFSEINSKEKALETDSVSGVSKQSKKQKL

| Compound | invasion mediated by EZH2 overexpression [1] | EZH2 inhibitory activity in high throughput screen (EZH2) | inhibition of EZH2 mediated E cadherin repression ([2]; cells over expressing EZH2, FIG. 5B) | concentration that optimally inhibits EZH2 mediated E cadherin repression ([2]; dose response, FIG. 6A) |
| --- | --- | --- | --- | --- |
| O=C(CCc1ccc(O)cc1)c1c(O)cc(O)cc1O [control small molecule, phloretin, reference compound] | did not inhibit the invasion | – | – | – |
| O=C(/C=C/c1ccc(O)cc1)c1ccc(O)cc1O [isoliquiritigenin] | inhibited this invasion | potent small molecule inhibitor of EZH2 activity | significantly inhibit | 16 µM |
